Data: ChEMBL document CHEMBL1149800, “Synthesis, physicochemical properties and antimicrobial evaluation of new (E)-chalcones” (Eur J Med Chem, 2008)
Converted amounts (≈) assume the structure as drawn.

How the values were obtained:
Staphylococcus aureus = experiment: Antibacterial activity against Staphylococcus aureus 209P FDA after 18 hrs by hole-plate agar diffusion method; assay type: functional
Nannizzia gypsea = experiment: Antifungal activity against Microsporum gypseum after 3 to 7 days; assay type: functional
Enterococcus faecalis = experiment: Antibacterial activity against Enterococcus faecalis after 18 hrs by hole-plate agar diffusion method; assay type: functional
Bacillus subtilis = experiment: Antibacterial activity against Bacillus subtilis ATCC 1633 after 18 hrs by hole-plate agar diffusion method; assay type: functional; conditions: ATCC 1633, 18 h
Escherichia coli = experiment: Antibacterial activity against Escherichia coli PZH 026 B6 after 18 hrs by hole-plate agar diffusion method; assay type: functional
Candida albicans = experiment: Antifungal activity against Candida albicans PCM 1409 PZH after 3 to 7 days; assay type: functional, organism-based

MIC (Staphylococcus aureus) | MIC (Nannizzia gypsea) | MIC (Enterococcus faecalis) | MIC (Bacillus subtilis) | MIC (Escherichia coli) | MIC (Candida albicans) | Compound
25 µM (≈ 10.1 µg/mL) | 123 µM (≈ 49.9 µg/mL) | 25 µM (≈ 10.1 µg/mL) | 19 µM (≈ 7.71 µg/mL) | – | – | CC1CCN(CCCCCCOc2ccc(/C=C/C(=O)c3ccccc3)cc2)CC1
– | 274 µM (≈ 100 µg/mL) | – | – | – | – | O=C(/C=C/c1ccc(OCCCCN2CCOCC2)cc1)c1ccccc1
– | 264 µM (≈ 100 µg/mL) | – | – | – | – | O=C(/C=C/c1ccc(OCCCCCN2CCOCC2)cc1)c1ccccc1
– | 254 µM (≈ 100 µg/mL) | – | – | – | – | O=C(/C=C/c1ccc(OCCCCCCN2CCOCC2)cc1)c1ccccc1
– | 189 µM (≈ 74.8 µg/mL) | – | – | – | – | O=C(/C=C/c1ccc(SCCCCCN2CCOCC2)cc1)c1ccccc1
– | < 244 µM | – | – | – | – | O=C(/C=C/c1ccc(SCCCCCCN2CCOCC2)cc1)c1ccccc1
– | 268 µM (≈ 100 µg/mL) | – | – | – | – | O=C(/C=C/c1ccc(OCCCCCBr)cc1)c1ccccc1
275 µM (≈ 100 µg/mL) | – | 275 µM (≈ 100 µg/mL) | 275 µM (≈ 100 µg/mL) | – | – | O=C(/C=C/c1ccc(OCCCCN2CCCCC2)cc1)c1ccccc1
254 µM (≈ 100 µg/mL) | 254 µM (≈ 100 µg/mL) | 254 µM (≈ 100 µg/mL) | 254 µM (≈ 100 µg/mL) | 254 µM (≈ 100 µg/mL) | 127 µM (≈ 50 µg/mL) | O=C(/C=C/c1ccc(SCCCCCN2CCCCC2)cc1)c1ccccc1
265 µM (≈ 100 µg/mL) | – | 265 µM (≈ 100 µg/mL) | 265 µM (≈ 100 µg/mL) | – | – | O=C(/C=C/c1ccc(OCCCCCN2CCCCC2)cc1)c1ccccc1
133 µM (≈ 50.2 µg/mL) | 265 µM (≈ 100 µg/mL) | 265 µM (≈ 100 µg/mL) | 265 µM (≈ 100 µg/mL) | – | – | CC1CCN(CCCCOc2ccc(/C=C/C(=O)c3ccccc3)cc2)CC1
19 µM (≈ 7.44 µg/mL) | 256 µM (≈ 100 µg/mL) | 26 µM (≈ 10.2 µg/mL) | 128 µM (≈ 50.1 µg/mL) | – | – | CC1CCN(CCCCCOc2ccc(/C=C/C(=O)c3ccccc3)cc2)CC1
256 µM (≈ 100 µg/mL) | < 256 µM | 256 µM (≈ 100 µg/mL) | 256 µM (≈ 100 µg/mL) | – | – | O=C(/C=C/c1ccc(OCCCCCCN2CCCCC2)cc1)c1ccccc1
21 µM (≈ 9.4 µg/mL) | – | 209 µM (≈ 93.6 µg/mL) | 209 µM (≈ 93.6 µg/mL) | – | – | O=C(/C=C/c1ccc(OCCCCCCCCCCN2CCCCC2)cc1)c1ccccc1
267 µM (≈ 100 µg/mL) | – | – | – | – | – | O=C(/C=C/c1ccc(SCCCCBr)cc1)c1ccccc1
25 µM (≈ 10.2 µg/mL) | < 246 µM | 25 µM (≈ 10.2 µg/mL) | 25 µM (≈ 10.2 µg/mL) | – | < 246 µM | O=C(/C=C/c1ccc(SCCCCCCN2CCCCC2)cc1)c1ccccc1
216 µM (≈ 100 µg/mL) | 216 µM (≈ 100 µg/mL) | – | – | – | – | O=C(/C=C/c1ccc(SCCCCCCCCCCN2CCCCC2)cc1)c1ccccc1
– | 193 µM (≈ 75.1 µg/mL) | – | – | – | – | O=C(/C=C/c1ccc(SCCCCCBr)cc1)c1ccccc1
26 µM (≈ 9.87 µg/mL) | 264 µM (≈ 100 µg/mL) | 264 µM (≈ 100 µg/mL) | 26 µM (≈ 9.87 µg/mL) | – | – | O=C(/C=C/c1ccc(SCCCCN2CCCCC2)cc1)c1ccccc1
25 µM (≈ 9.84 µg/mL) | 191 µM (≈ 75.2 µg/mL) | 254 µM (≈ 100 µg/mL) | 254 µM (≈ 100 µg/mL) | – | – | CC1CCN(CCCCSc2ccc(/C=C/C(=O)c3ccccc3)cc2)CC1
18 µM (≈ 7.34 µg/mL) | 184 µM (≈ 75 µg/mL) | 25 µM (≈ 10.2 µg/mL) | 25 µM (≈ 10.2 µg/mL) | – | 184 µM (≈ 75 µg/mL) | CC1CCN(CCCCCSc2ccc(/C=C/C(=O)c3ccccc3)cc2)CC1
24 µM (≈ 10.1 µg/mL) | < 237 µM | 24 µM (≈ 10.1 µg/mL) | 18 µM (≈ 7.59 µg/mL) | – | < 237 µM | CC1CCN(CCCCCCSc2ccc(/C=C/C(=O)c3ccccc3)cc2)CC1
245 µM (≈ 100 µg/mL) | – | 245 µM (≈ 100 µg/mL) | – | – | – | O=C(/C=C/c1ccc(SCCCCCCN2CCNCC2)cc1)c1ccccc1
263 µM (≈ 100 µg/mL) | – | 263 µM (≈ 100 µg/mL) | 263 µM (≈ 100 µg/mL) | – | – | O=C(/C=C/c1ccc(SCCCCN2CCNCC2)cc1)c1ccccc1
– | 11 µM (≈ 10.2 µg/mL) | – | – | – | 0.5 µM (≈ 0.462 µg/mL) | C[C@@H]1[C@H](O)[C@@H](C)/C=C/C=C/C=C/C=C/C=C/C=C/C=C/[C@H](O[C@@H]2O[C@H](C)[C@@H](O)[C@H](N)[C@@H]2O)C[C@@H]2O[C@](O)(C[C@@H](O)C[C@@H](O)[C@H](O)CC[C@@H](O)C[C@@H](O)CC(=O)O[C@H]1C)C[C@H](O)[C@H]2C(=O)O [AMPHOTERICIN B]
15 µM (≈ 4.85 µg/mL) | – | 15 µM (≈ 4.85 µg/mL) | 15 µM (≈ 4.85 µg/mL) | 15 µM (≈ 4.85 µg/mL) | – | O=C(N[C@H](CO)[C@H](O)c1ccc([N+](=O)[O-])cc1)C(Cl)Cl [CHLORAMPHENICOL]
